These results are taken from publication PMC12447391 (2025).

Experiment [1] has as its system TESS.1_trimmed in Apta-gel (DNA, aptamer) ACGGGATGTCCGGGGTACGGTGGTTGCAGTTCGTTTTTTTCCGATTACAGCC
Kind of experiment: OECT transient response, equilibrium titration. As to conditions: PBS, immobilised aptamer.

Experiment [2] relates to Ref in Apta-gel (DNA, aptamer) CGACCGGTCTGGGGACCCTGTCTGGGTGTGTGGGTAGTAGGTCGTTTTTTCCGATTACAGCC
Kind of experiment: nonfaradic EIS of Apta-gel. As to conditions: PBS; effective capacitance rises at 21 °C, falls at 35 °C.

The subject of experiment [3] is R5MPT in Apta-gel (DNA, aptamer) CGGGCGACGGGGATTTTTGGTGCACTATGTGGTTCGTTCGGGGTGGGCTGCGTTCTCCATTCTGGTTTTTTCCGATTACAGCC
Kind of experiment: OECT flow-cell kinetics (koff/kon). The settings on record: PBS, 25 °C; apparent; kon 201.4 M^-1 s^-1, koff 0.0067 s^-1; immobilised aptamer.

Experiment [4] concerns R5MPT (DNA, aptamer) CGGGCGACGGGGATTTTTGGTGCACTATGTGGTTCGTTCGGGGTGGGCTGCGTTCTCCATTCTGGTTTTTTCCGATTACAGCC
Kind of experiment: ITC. The settings on record: PBS, 25 °C.

Experiment [5] relates to Ref (DNA, aptamer) CGACCGGTCTGGGGACCCTGTCTGGGTGTGTGGGTAGTAGGTCGTTTTTTCCGATTACAGCC
Kind of experiment: ITC. As to conditions: PBS, 25 °C.

Experiment [6] deals with Ref in Apta-gel (DNA, aptamer) CGACCGGTCTGGGGACCCTGTCTGGGTGTGTGGGTAGTAGGTCGTTTTTTCCGATTACAGCC
Kind of experiment: OECT transient response, equilibrium titration. As to conditions: PBS, 21 °C; apparent; immobilised aptamer.

Experiment [7] relates to R5MPT (DNA, aptamer) CGGGCGACGGGGATTTTTGGTGCACTATGTGGTTCGTTCGGGGTGGGCTGCGTTCTCCATTCTGGTTTTTTCCGATTACAGCC
Kind of experiment: CD. As to conditions: PBS, 25 °C; 1 μM aptamer, 1 μM cortisol; peaks shift.

The structures appear in SMILES notation.

Consider `C[C@]12CC[C@H]3[C@@H](CCC4=CC(=O)CC[C@@]43C)[C@@H]1CC[C@@H]2O`, for which the “KD, apparent” value in experiment [1] worked out at 0.303 µM.

Regarding `C[C@]12CCC(=O)C=C1CC[C@@H]1[C@@H]2[C@@H](O)C[C@@]2(C)[C@H]1CC[C@]2(O)C(=O)CO`, the binding entry in experiment [2] and in experiment [7] was “yes” each time. The KD amounted to 33 µM in experiment [3], 10.2 µM in experiment [4], 3.75 µM in experiment [5] and 45.95 µM in experiment [6].
